Assay [1] deals with polyphosphate-dependent NAD kinase from Micrococcus flavus. It is filed as biochemical.
Assay [2] concerns the target M. tuberculosis Ppnk protein (Mycobacterium tuberculosis, UniProt P9WHV7). The format is biochemical, M. tuberculosis H37Rv.

Sequence of M. tuberculosis Ppnk protein (P9WHV7 whole entry): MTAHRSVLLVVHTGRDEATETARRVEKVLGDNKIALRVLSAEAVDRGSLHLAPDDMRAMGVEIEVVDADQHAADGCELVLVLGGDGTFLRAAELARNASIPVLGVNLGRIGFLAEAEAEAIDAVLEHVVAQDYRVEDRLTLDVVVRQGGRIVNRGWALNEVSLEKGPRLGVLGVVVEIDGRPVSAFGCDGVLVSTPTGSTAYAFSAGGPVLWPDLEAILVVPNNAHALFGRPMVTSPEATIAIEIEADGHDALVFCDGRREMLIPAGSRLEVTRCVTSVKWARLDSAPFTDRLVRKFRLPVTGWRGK

In the case of `Nc1ncnc2c1ncn2[C@@H]1O[C@H](COP(=O)(O)OP(=O)(O)OP(=O)(O)O)[C@@H](O)[C@H]1O` [ATP], the ATP/polyphosphate reaction ratio entry in assay [1] and in assay [2] was “ATP (100%)” in each case.
For `[Cl][Al]([Cl])[Cl]` [AlCl3], the “Activation by metal ions” value in assay [1] and in assay [2] was “AlCl3 (0%)” throughout.
In the case of `[Ca+2].[Cl-].[Cl-]` [CaCl2], the “Activation by metal ions” value is recorded as “CaCl2 (65%)” in assay [1] and “CaCl2 (34%)” in assay [2].
As for `[Cl-].[Cl-].[Co+2]` [CoCl2], the “Activation by metal ions” value in assay [1] is “CoCl2 (51%)”; in assay [2], “CoCl2 (55%)”.
With `[Cl][Cu][Cl]` [CuCl2], the “Activation by metal ions” value is “CuCl2 (33%)” in assay [1] and “CuCl2 (8%)” in assay [2].
In the same order, the values of `[Cl-].[Cl-].[Mg+2]` [MgCl2] are “MgCl2 (100%)” and “MgCl2 (100%)”.
As for `[Cl][Mn][Cl]` [MnCl2], the “Activation by metal ions” value was “MnCl2 (143%)” in assay [1] and “MnCl2 (268%)” in assay [2].
In the same order, the values of `[Cl-].[Cl-].[Zn+2]` [ZnCl2] are “ZnCl2 (30%)” and “ZnCl2 (30%)”.
For the compound `O=P1(O)OP(=O)(O)OP(=O)(O)OP(=O)(O)OP(=O)(O)OP(=O)(O)O1` [hexametaphosphate], the values for the Polyphosphate specificity result in assay [1] and in assay [2] were “(58%)” and “(72%)”, respectively.

The record behind these values is patent publication US7863014B2 (priority 2001, dated 2011).
